Source: PubChem BioAssay (NCI)
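Cells were grown in 96-well plates and exposed to each compound for 48 hours at five concentrations; endpoints were interpolated linearly between bracketing concentrations, or set to the highest concentration if not reached. TGI denotes the concentration required for complete inhibition of growth.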

Tests used:
Experiment in all cases: NCI tumour cell line growth inhibition, 48 h
LOX IMVI melanoma = system: LOX IMVI melanoma
A549 NSCLC = system: A549 NSCLC
KM20L2 colon = system: KM20L2 colon
OVCAR-5 ovarian = system: OVCAR-5 ovarian
HOP-92 NSCLC = system: HOP-92 NSCLC
SF-539 CNS = system: SF-539 CNS
NCI-H522 lung = system: NCI-H522 lung
SF-268 CNS = system: SF-268 CNS
SN12C renal = system: SN12C renal
P388 leukemia = system: P388 leukemia
DMS 273 small cell lung = system: DMS 273 small cell lung
RPMI-8226 leukemia = system: RPMI-8226 leukemia
HCT-116 colon = system: HCT-116 colon
UO-31 renal = system: UO-31 renal
A498 renal = system: A498 renal
SNB-19 CNS = system: SNB-19 CNS
HOP-62 NSCLC = system: HOP-62 NSCLC
MCF7 breast = system: MCF7 breast
OVCAR-3 ovarian = system: OVCAR-3 ovarian
SK-OV-3 ovarian = system: SK-OV-3 ovarian
HCT-15 colon = system: HCT-15 colon
SK-MEL-28 melanoma = system: SK-MEL-28 melanoma
EKVX NSCLC = system: EKVX NSCLC
NCI-H23 lung = system: NCI-H23 lung
P388/ADR leukemia = system: P388/ADR leukemia
SK-MEL-2 melanoma = system: SK-MEL-2 melanoma
DMS 114 small cell lung = system: DMS 114 small cell lung
CAKI-1 renal = system: CAKI-1 renal
IGROV1 ovarian = system: IGROV1 ovarian
SN12K1 renal = system: SN12K1 renal
XF 498 CNS = system: XF 498 CNS
K-562 leukemia = system: K-562 leukemia
SF-295 CNS = system: SF-295 CNS
NCI-H460 lung = system: NCI-H460 lung
SNB-78 CNS = system: SNB-78 CNS
SNB-75 CNS = system: SNB-75 CNS
OVCAR-8 ovarian = system: OVCAR-8 ovarian
OVCAR-4 ovarian = system: OVCAR-4 ovarian
SK-MEL-5 melanoma = system: SK-MEL-5 melanoma
HL-60(TB) leukemia = system: HL-60(TB) leukemia
SW-620 colon = system: SW-620 colon
RXF 393 renal = system: RXF 393 renal
KM12 colon = system: KM12 colon
DLD-1 colon = system: DLD-1 colon
UACC-257 melanoma = system: UACC-257 melanoma
HOP-18 NSCLC = system: HOP-18 NSCLC
U251 CNS = system: U251 CNS
COLO 205 colon = system: COLO 205 colon
NCI-H226 lung = system: NCI-H226 lung
NCI/ADR-RES ovarian = system: NCI/ADR-RES ovarian
UACC-62 melanoma = system: UACC-62 melanoma
HT29 colon = system: HT29 colon
HCC-2998 colon = system: HCC-2998 colon
MALME-3M melanoma = system: MALME-3M melanoma
MOLT-4 leukemia = system: MOLT-4 leukemia
CCRF-CEM leukemia = system: CCRF-CEM leukemia

In the case of `C=CCCCCn1c2ccccc2c2c(C)c3cnccc3c(C)c21`, the TGI (LOX IMVI melanoma) is reported as 82.5 µM, the TGI (A549 NSCLC) is reported as 32.2 µM and the TGI (KM20L2 colon) is reported as 31.9 µM. It also gave a TGI (OVCAR-5 ovarian) of 40.4 µM, a TGI (HOP-92 NSCLC) of 19.8 µM and a TGI (SF-539 CNS) of 33.5 µM. For the same molecule, the TGI (NCI-H522 lung) was 18 µM, the TGI (SF-268 CNS) was 77.8 µM and the TGI (SN12C renal) was 29.7 µM. The TGI (P388 leukemia) was 10.2 µM, the TGI (DMS 273 small cell lung) was 20.5 µM and the TGI (RPMI-8226 leukemia) was 12.8 µM. The TGI (HCT-116 colon) was 20.9 µM, the TGI (UO-31 renal) was 23.8 µM and the TGI (A498 renal) was 17.8 µM. It also gave a TGI (SNB-19 CNS) of 37.9 µM, a TGI (HOP-62 NSCLC) of 35.9 µM and a TGI (MCF7 breast) of 36.7 µM. The TGI (OVCAR-3 ovarian) was 19.9 µM, the TGI (SK-OV-3 ovarian) was 35.9 µM and the TGI (HCT-15 colon) was 27.5 µM. It also gave a TGI (SK-MEL-28 melanoma) of 40.8 µM, a TGI (EKVX NSCLC) of 34.4 µM and a TGI (NCI-H23 lung) of 32.8 µM. For the same molecule, the TGI (P388/ADR leukemia) was 15.8 µM, the TGI (SK-MEL-2 melanoma) was 47.3 µM and the TGI (DMS 114 small cell lung) was 16.8 µM. The TGI (CAKI-1 renal) was 27.8 µM, the TGI (IGROV1 ovarian) was 46.4 µM and the TGI (SN12K1 renal) was 44.3 µM. It also gave a TGI (XF 498 CNS) of 4.36 µM, a TGI (K-562 leukemia) of 16.1 µM and a TGI (SF-295 CNS) of 26 µM. It also gave a TGI (NCI-H460 lung) of 39.2 µM, a TGI (SNB-78 CNS) of 46.3 µM and a TGI (SNB-75 CNS) of 53.7 µM. The TGI (OVCAR-8 ovarian) was 21.2 µM, the TGI (OVCAR-4 ovarian) was 21.8 µM and the TGI (SK-MEL-5 melanoma) was 16.7 µM. For the same molecule, the TGI (HL-60(TB) leukemia) was 4.92 µM, the TGI (SW-620 colon) was 73.6 µM and the TGI (RXF 393 renal) was 43 µM. It also gave a TGI (KM12 colon) of 42.6 µM, a TGI (DLD-1 colon) of 29.9 µM and a TGI (UACC-257 melanoma) of 18.7 µM. The TGI (HOP-18 NSCLC) was 35.6 µM, the TGI (U251 CNS) was 40.6 µM and the TGI (COLO 205 colon) was 18 µM. The TGI (NCI-H226 lung) was 94.9 µM, the TGI (NCI/ADR-RES ovarian) was 33.7 µM and the TGI (UACC-62 melanoma) was 40.9 µM. It also gave a TGI (HT29 colon) of 25.7 µM, a TGI (HCC-2998 colon) of 51.2 µM and a TGI (MALME-3M melanoma) of 36.8 µM. The TGI (MOLT-4 leukemia) was 9.47 µM and the TGI (CCRF-CEM leukemia) was 14.3 µM.
